The numbers were not newly measured in patent US20120282187A1 (BOEHRINGER INGELHEIM INTERNATIONAL GMBH, priority 2008, published 2012), which cites them from elsewhere.

Series [1] relates to patients with atrial fibrillation. The note with it: sub-cutaneous; cited from earlier work.
Series [2] has as its system patients with non-valvular atrial fibrillation. The following applies: in vivo; cited from earlier work.

In the case of `CO[C@H]1O[C@H](COS(=O)(=O)O)[C@@H](O[C@@H]2O[C@@H](C(=O)O)[C@@H](O[C@H]3O[C@H](COS(=O)(=O)O)[C@@H](O[C@@H]4O[C@H](C(=O)O)[C@@H](O[C@H]5O[C@H](COS(=O)(=O)O)[C@@H](OC)[C@H](OC)[C@H]5OC)[C@H](OC)[C@H]4OC)[C@H](OS(=O)(=O)O)[C@H]3OS(=O)(=O)O)[C@H](OC)[C@H]2OC)[C@H](OS(=O)(=O)O)[C@H]1OS(=O)(=O)O` [idraparinux], in series [1], the “efficacy compared to warfarin” value was “more effective than warfarin” and the “risk of bleeding compared to warfarin” value is “substantially higher risk of bleeding”.

Take `CCOC(=O)CN[C@@H](C(=O)N1CC[C@H]1C(=O)NCc1ccc(/C(N)=N\O)cc1)C1CCCCC1` [ximelagatran]: in series [2], the hepatotoxicity result was “hepatotoxic”.
